Results published in PMC7337247 (Critical care medicine, 2020).
“Also recorded” adds a separate entry of the source. Like-named read-outs stand apart in the source and are kept apart here.

Key:
human PMN [1] = experiment: PMN phagocytosis of pHrodo-labeled E. coli; format: cell-based; settings: 10 μg/mL Cytochalasin D, E. coli 20:1, 30 min 37°C
Fpr1-KO bone marrow PMN = experiment: fMLF desensitization of migration to KC, Fpr1-KO mouse BM-PMN; format: cell-based; settings: fMLF 100 nM or 1 μM for 45 min; KC 100 ng/mL; 60 min
human FPR1 = biological target: T1, human FPR1 (Homo sapiens, UniProt P21462); settings: cited from earlier work
T1 sequence (P21462 1-350): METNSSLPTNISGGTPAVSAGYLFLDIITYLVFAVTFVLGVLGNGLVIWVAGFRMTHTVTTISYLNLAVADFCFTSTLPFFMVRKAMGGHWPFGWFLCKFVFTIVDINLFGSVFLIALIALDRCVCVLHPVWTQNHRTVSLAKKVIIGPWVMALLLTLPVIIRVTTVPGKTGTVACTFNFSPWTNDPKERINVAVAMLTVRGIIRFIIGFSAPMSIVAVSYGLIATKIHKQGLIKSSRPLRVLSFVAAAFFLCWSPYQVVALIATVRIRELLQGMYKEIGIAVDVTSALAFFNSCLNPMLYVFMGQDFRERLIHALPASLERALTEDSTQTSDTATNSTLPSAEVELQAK

[2] = tested on: wild type bone marrow PMN; experiment: fMLF desensitization of migration to KC, wild type mouse BM-PMN; format: cell-based; settings: fMLF 100 nM or 1 μM for 45 min; KC 100 ng/mL; 60 min
BLT1 [3] = experiment: fMLF-induced heterologous desensitization: LTB4-induced Ca2+ depletion; format: cell-based, human; settings: fMLF 10 nM or 100 nM; 100 nM LTB4
Fpr2-KO bone marrow PMN = experiment: fMLF desensitization of migration to KC, Fpr2-KO mouse BM-PMN; format: cell-based; settings: fMLF 100 nM or 1 μM for 45 min; KC 100 ng/mL; 60 min
CXCR2 [4] = experiment: fMLF-induced heterologous desensitization: CXCL1-induced Ca2+ depletion; format: cell-based, human; settings: pre-treatment with fMLF; 5 nM CXCL1
human PMN [5] = settings: ref [7]; cited from earlier work
CXCR2 [6] = experiment: Surface expression of CXCR2 by flow cytometry; format: cell-based, human; settings: 100 nM ND6; with or without 1 μM POL7200 pretreatment
BLT1 [7] = experiment: Surface expression of BLT1 by flow cytometry; format: cell-based, human; settings: 100 nM ND6; with or without 1 μM POL7200 pretreatment; 3 separate experiments

## C=C1[C@@H](C)[C@H]2[C@H](Cc3ccccc3)NC(=O)[C@]23[C@H](OC(C)=O)/C=C/[C@@](C)(O)C(=O)[C@@H](C)C/C=C/[C@H]3[C@@H]1O [Cytochalasin D]
Human PMN [1]
  effect on phagocytosis, positive control: expected suppression of phagocytosis
Human PMN [1]; listed as cytochalasin D
  effect on phagocytosis, positive control: inhibited PMN phagocytosis

## N-formyl-methionyl-leucyl phenylalanine [fMLF]
Fpr1-KO bone marrow PMN
  effect of fMLF pre-exposure on migration toward KC, Fpr1-KO: PMN migration to KC persisted; also recorded: protected from chemokine desensitization
Human FPR1; nanomolar concentrations, ref [17]
  receptor through which it acts: acts exclusively through high-affinity human FPR1 receptors
[2]
  effect of fMLF pre-exposure on migration toward KC, wild type: inhibited migration toward the CXC-chemokine KC; also recorded: desensitized to KC by prior fMLF exposure
BLT1 [3]
  suppression of LTB4-induced Ca2+ response by fMLF pre-treatment: markedly inhibits Ca^2+ flux response to LTB4; also recorded: significantly reduced calcium depletion
Fpr2-KO bone marrow PMN
  effect of fMLF pre-exposure on migration toward KC, Fpr2-KO: inhibited migration toward the CXC-chemokine KC; also recorded: desensitized to KC by prior fMLF exposure
CXCR2 [4]
  suppression of CXCL1-induced Ca2+ response by fMLF pre-treatment: strongly inhibits that response; also recorded: significantly reduced calcium depletion

## fMMYALF [ND6]
Human PMN [5]
  potency as inducer of PMN Ca2+ release/chemotaxis: potent inducer of human PMN Ca^2+ release and chemotaxis; also recorded: even more potent than fMLF; also recorded: most potent human mtFP
Human FPR1; 100 nM, ref [7]
  receptor through which it acts: acts exclusively at FPR1
CXCR2 [6]
  effect on CXCR2 surface expression: significantly reduces expression of CXCR2; also recorded: internalized and decreased the surface expression of CXCR2 and BLT1
BLT1 [7]
  effect on BLT1 surface expression: significantly reduces expression of BLT1
